This is an account of results in patent US7981896B2 (Athersys, Inc., priority 2006, dated 2011).

The target in the assay is T1, human histamine H3 receptor (Homo sapiens, UniProt Q9Y5N1).
T1 construct: endogenous in cells; host or cells: HT1080-Gqαi5 RAGE clone (RAGE-H3), human fibrosarcoma line; integrated RAGE vector pFG8-HH3 supplies exon 1, the cell's own gene supplies the other exons
T1 sequence (Q9Y5N1 whole entry): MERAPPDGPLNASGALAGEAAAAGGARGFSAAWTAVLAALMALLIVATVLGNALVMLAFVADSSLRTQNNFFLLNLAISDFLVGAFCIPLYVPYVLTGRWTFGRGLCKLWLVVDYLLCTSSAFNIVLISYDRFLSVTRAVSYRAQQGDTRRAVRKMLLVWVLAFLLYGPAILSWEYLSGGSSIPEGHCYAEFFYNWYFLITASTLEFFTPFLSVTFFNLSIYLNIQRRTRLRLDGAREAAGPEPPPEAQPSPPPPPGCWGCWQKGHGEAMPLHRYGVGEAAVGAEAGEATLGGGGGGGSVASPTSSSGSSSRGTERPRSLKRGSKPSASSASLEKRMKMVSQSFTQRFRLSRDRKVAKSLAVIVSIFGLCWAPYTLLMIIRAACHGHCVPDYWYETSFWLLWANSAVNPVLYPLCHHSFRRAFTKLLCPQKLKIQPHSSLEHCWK
Kind of assay: Competition radioligand binding assay with [125I]iodoproxyfan on membranes of RAGE-H3 (HT1080-Gqαi5) cells expressing human H3 receptor. The settings on record: ~0.15 nM [125I]iodoproxyfan, 1.5 hrs at room temperature, head does not name the quantity (apparent Ki by Cheng-Prussof). The protocol: Representative compounds of the present invention that were prepared by the procedures of Examples 1-83 were evaluated in binding assays against cells expressing human H3 receptor by the following procedure.
[^125I]iodoproxyfan (2000 Ci/mmol) was obtained from Amersham Bioscience (Piscataway, N.J.). All other chemicals were either from Sigma-Aldrich (St. Louis, Mo.) or Tocris Cookson Inc. (Ellisville, Mo.).
The human histamine H3 receptor was stably expressed in HT1080 cells containing the chimeric G-protein, Gq[…]i5 (Coward et al., Anal Biochem 1999; 270:242-8). HT1080-Gqαi5 cells were grown in alpha-modified MEM containing 10% fetal bovine serum and 7 μg/ml blasticidin at 37° C. in 5% CO2/95% atmosphere. Cells (4.8×10^9) were irradiated with 50 rads from a ^137Cs source and the pFG8-HH3 RAGE (Random Activation of Gene Expression; see Harrington et al., Nature Biotechnology. 2001; 19:440-45) vector was subsequently integrated into the cells via electroporation (250V, 600 μF, 50Ω). The RAGE vector pFG8-HH3 contained cDNA sequence coding for the first exon (83 amino acids) of human H3 receptor. After electroporation, cells were plated in T75 flasks and grown in alpha-modified MEM. The culture medium was replaced 48 hrs after electroporation with alpha-modified MEM, 10% fetal bovine serum, 500 μg/ml hygromycin B and 3 μg/ml puromycin. Medium was replaced every four days during cell expansion. To identify RAGE activated cells expressing the H3 receptor, pools of approximately 10,000 colonies (5×10^7-1.5×10^8 cells total) were screened by PCR for the desired gene product (using primers specific to the RAGE vector and exon 2 of the H3 receptor). […] Positive 100 cells/well pools were identified by PCR, confirmed by sequencing, and subsequently subcloned to 0.8 cells/well. Once clones expressing the H3 receptor were identified by PCR analysis, assays (FLIPR or radioligand binding) were performed to confirm that the activated gene produced functional protein. The protein expression in the initial clones obtained from the RAGE library was increased by growth in the presence of methotrexate. Since the integrated RAGE vector contains the DHFR gene, such treatment selects for cells that have amplified the genetic locus containing the RAGE insert. Subclones obtained after methotrexate amplification were tested for functional activity in FLIPR assays to identify the clone that was most suitable for HTS. The final HT1080-Gqαi5 RAGE clone (RAGE-H3) expressing the human histamine H3 receptor was grown in alpha-modified MEM containing 10% fetal bovine serum, 3 μg/ml puromycin, 500 μg/ml hygromycin B, 3.2 μM methotrexate at 37° C. in 5% CO2/95% atmosphere.
RAGE-H3 cells (10^9) were washed twice with cold PBS, scraped off the plates, and centrifuged at 1000×g for 5 minutes. Cells were resuspended in ice-cold 10 mM Tris HCl, pH 7.4, containing 5 mM EDTA and protease inhibitor cocktail tablets (Roche Molecular Biochemicals). After incubating on ice for 10 min, the cells were homogenized with a dounce homogenizer or a polytron tissue grinder, and centrifuged at 1000×g for 10 min at 4° C. The resulting supernatant was centrifuged at 32,000×g for 30 min at 4° C. The membrane pellets were resuspended in 50 mM Tris HCl, pH 7.4, and stored at −80° C. until use. Protein concentration was determined by the Bradford method (Bio-Rad Laboratories, CA).
Binding assays were carried out in 96-well polypropylene plates in 50 mM Tris HCl, pH 7.4, containing 1 mM EDTA. Reaction mixtures contained 100 μl of membrane suspension, 50 μl of 4% DMSO, and 50 μl of increasing amounts of [^125I]iodoproxyfan (final concentration 0.0005-1.8 nM for human H3 receptor saturation binding assay). Nonspecific binding was defined by adding 10 μM clobenpropit to the reaction mixtures. […]
As to `CN(C)C1CCN(CCCOc2ccc(-n3nc(C(F)(F)F)c4oc5ccccc5c43)cc2)C1` (stereo not drawn) [Example 68, Dimethyl-(1-{3-[4-(1-trifluoromethyl-8-oxa-2,3-diaza-cyclopenta[a]inden-3-yl)-phenoxy]-propyl}-pyrrolidin-3-yl)-amine], the Ki is less than 1000 nM.

`Cc1nn(-c2ccc(OCCCN3CCCC3)cc2)c(C)c1-c1ccccc1` [Example 39, 4-Phenyl-3,5-dimethyl-1-[4-(3-pyrrolidin-1-ylpropoxy)phenyl]-1H-pyrazole]: the Ki is less than 10 nM.

Consider “3-Phenyl-1-[4-(3-pyrrolidin-1-ylpropoxy)phenyl]-4,5,6,7-tetrahydro-2H-indazole [Example 44]”, for which the Ki is less than 100 nM. Regarding `CCc1cc(CC)n(-c2ccc(OCCCN3CCCC3)cc2)n1` [Example 21, 3,5-Diethyl-1-[4-(3-pyrrolidin-1-ylpropoxy)phenyl]-1H-pyrazole], the Ki was less than 10 nM. In the case of `Cc1cc(C(C)(C)C)n(-c2ccc(OCCCN3CCCC3)cc2)n1` [Example 33, 5-tert-Butyl-3-methyl-1-[4-(3-pyrrolidin-1-ylpropoxy)-phenyl]-1H-pyrazole], the Ki was less than 10 nM. Under `COc1ccc2c(c1)-c1c(c(C)nn1-c1ccc(OCCCN3CCCC3)cc1)CC2` [Example 7, 8-Methoxy-3-methyl-1-[4-(3-pyrrolidin-1-ylpropoxy)phenyl]-4,5-dihydro-1H-benzo[g]indazole] stands less than 100 nM. Under `Cc1c2c(nn1-c1ccc(OCCCN3CCCCC3)cc1)CCC2` [Example 60, 3-Methyl-2-[4-(3-piperidin-1-yl-propoxy)-phenyl]-2,4,5,6-tetrahydro-cyclopentapyrazole] stands less than 10 nM; under `CC1CCCN1CCCOc1ccc(-n2nc(C(F)(F)F)c3oc4ccccc4c32)cc1` (stereo not drawn) [Example 67, 3-{4-[3-(2-Methyl-pyrrolidin-1-yl)-propoxy]-phenyl}-1-trifluoromethyl-3H-8-oxa-2,3-diaza-cyclopenta[a]indene], less than 100 nM; under `Cc1cc(C(=O)NC2CCCCC2)n(-c2ccc(OCCC3CCCN3C)cc2)n1` (stereo not drawn) [Example 77, 5-Methyl-2-{4-[2-(1-methylpyrrolidin-2-yl)ethoxy]phenyl}-2H-pyrazole-3-carboxylic acid cyclohexylamide], less than 1000 nM. Regarding `Cc1cc(C(=O)NC2CCCCC2)nn1-c1ccc(OCCCN2CCCC2)cc1` [Example 83, 5-Methyl-1-[4-(3-pyrrolidin-1-ylpropoxy)phenyl]-1H-pyrazole-3-carboxylic acid cyclohexylamide], the Ki is less than 10 nM.

On to `CCc1cc(CC)n(-c2ccc(OCCCN3CCOCC3)cc2)n1` [Example 23, 3,5-Diethyl-1-[4-(3-morpholin-1-ylpropoxy)phenyl]-1H-pyrazole], for which the Ki was less than 1000 nM. In the case of `c1ccc2nn(-c3ccc(OCCCN4CCCC4)cc3)cc2c1` [Example 18, 2-[4-(3-Pyrrolidin-1-ylpropoxy)phenyl]-2H-indazole], the Ki is less than 100 nM.

As for `CC(C)c1cc(C(C)C)n(-c2ccc(OCCCN3CCCC3)cc2)n1` [Example 24, 3,5-Diisopropyl-1-[4-(3-pyrrolidin-1-yl-propoxy)-phenyl]-1H-pyrazole], the Ki is less than 10 nM. Under `Cc1cc(CO)n(-c2ccc(OCCCN3CCCC3)cc2)n1` [Example 14, {5-Methyl-2-[4-(3-pyrrolidin-1-ylpropoxy)phenyl]-2H-pyrazol-3-yl}methanol] stands less than 10 nM; under `Cc1cc(-c2ccccc2)n(-c2ccc(OCCCN3CCCC3)cc2)n1` [Example 41], less than 10 nM; under `Cc1nn(-c2ccc(OCCCN3CCCC3)cc2)c2c1sc1ccccc12` [Example 64, 3-Methyl-1-[4-(3-pyrrolidin-1-yl-propoxy)-phenyl]-1H-benzo[4,5]thieno[3,2-c]pyrazole], less than 10 nM. Under `Cc1cc(C(=O)NC2CCCCC2)n(-c2ccc(OC3CCN(C4CCCCC4)CC3)cc2)n1` [Example 11, 2-[4-(1-Cyclohexylpiperidin-4-yloxy)phenyl]-5-methyl-2H-pyrazole-3-carboxylic acid cyclohexylamide] stands less than 10 nM; under `Cc1cc(C(=O)NCC2CCCCC2)n(-c2ccc(OCCCN3CCCC3)cc2)n1` [Example 79, 5-Methyl-2-[4-(3-pyrrolidin-1-ylpropoxy)phenyl]-2H-pyrazole-3-carboxylic acid cyclohexylmethylamide], less than 1 nM. With `Cc1cc(OCCCN2CCCC2)ccc1-n1nc(C(C)C)cc1C(C)C` [Example 61, 3,5-Diisopropyl-1-[2-methyl-4-(3-pyrrolidin-1-ylpropoxy)phenyl]-1H-pyrazole] the figure was less than 10 nM; with `FC(F)(F)c1cc(-c2ccccc2)n(-c2ccc(OCCCN3CCCC3)cc2)n1` [Example 50, 5-Phenyl-1-[4-(3-pyrrolidin-1-yl-propoxy)-phenyl]-3-trifluoromethyl-1H-pyrazole], less than 10 nM.

With `Cc1nn(-c2ccc(OCCCN3CCCC3)cc2)c2c1CC[C@@H]1CCCC[C@@H]21` (relative stereo) [Example 5, 3-Methyl-1-[4-(3-pyrrolidin-1-ylpropoxy)phenyl]-4,5,5a,6,7,8,9,9a-octahydro-1H-benzo[g]indazole], the Ki is less than 1 nM. Under `Cc1nn(-c2ccc(OCCCN3CCCC3C)cc2)c2c1sc1ccccc12` (stereo not drawn) [Example 65, 3-Methyl-1-{4-[3-(2-methyl-pyrrolidin-1-yl)-propoxy]-phenyl}-1H-benzo[4,5]thieno[3,2-c]pyrazole] stands less than 10 nM; under `Cc1cc(-c2ccccc2)nn1-c1ccc(OCCCN2CCCC2)cc1` [Example 40, 5-Methyl-3-phenyl-1-[4-(3-pyrrolidin-1-ylpropoxy)phenyl]-1H-pyrazole], less than 10 nM; under `FC(F)(F)c1cc(-c2ccccc2)n(-c2ccc(OCCCN3CCCCC3)cc2)n1` [Example 54, 1-{3-[4-(5-Phenyl-3-trifluoromethyl-pyrazol-1-yl)-phenoxy]-propyl}-piperidine], less than 100 nM. With `Cc1nn(-c2ccc(OCCCN3CCCC3)cc2)c2c1CCC2` [Example 57, 3-Methyl-1-[4-(3-pyrrolidin-1-yl-propoxy)-phenyl]-1,4,5,6-tetrahydro-cyclopentapyrazole] the figure was less than 10 nM; with `Cc1cc(CC(C)C)n(-c2ccc(OCCCN3CCCCC3)cc2)n1` [Example 29, 5-Isobutyl-3-methyl-1-[4-(3-piperidin-1-ylpropoxy)-phenyl]-1H-pyrazole], less than 100 nM. As to `Cc1cc(C(=O)NC2CCCCC2)n(-c2ccc(OCCCN3CCCCC3)cc2)n1` [Example 75, 5-Methyl-2-[4-(3-piperidin-1-ylpropoxy)phenyl]-2H-pyrazole-3-carboxylic acid cyclohexylamide], the Ki is less than 1 nM. Under `C[C@@H]1CCCN1CCCOc1ccc(-n2nc(C(F)(F)F)cc2-c2ccccc2)cc1` [Example 51, 1-{4-[3-(2-(R)-Methyl-pyrrolidin-1-yl)-propoxy]-phenyl}-5-phenyl-3-trifluoromethyl-1H-pyrazole] stands less than 100 nM; under `CC(C)c1cc(C(C)C)n(-c2ccc(OCCCN3CCCCC3)cc2)n1` [Example 25, 3,5-Diisopropyl-1-[4-(3-piperidin-1-yl-propoxy)-phenyl]-1H-pyrazole], less than 10 nM. As to `Cc1cc(C(=O)NC2CCCCC2)n(-c2ccc(OCCCN3CCOCC3)cc2)n1` [Example 76, 5-Methyl-2-[4-(3-morpholin-4-ylpropoxy)phenyl]-2H-pyrazole-3-carboxylic acid cyclohexylamide], the Ki was less than 10 nM.
